Patent publication US11873298B2, “Compounds and uses thereof” (JANSSEN PHARMACEUTICA NV, priority 2017, dated 2024)
Values joined by “and” are separate entries in the source; they are usually repeats but may differ in a detail not shown here. Identical values can stand only once.

How the values were obtained:
SCD1 = molecular target: T1, SCD1 (Homo sapiens, UniProt O00767); assay: Growth inhibition of humanized yeast strain expressing SCD1 as sole desaturase; assay type: cell-based; conditions: humanized yeast strain expressing SCD1
T1 construct: host or cells: S. cerevisiae ole1Δ strain (W303 pdr1Δ pdr3Δ background), plasmid pRS316 with TDH3 promoter and CYC1 terminator
T1 sequence (O00767 1-359): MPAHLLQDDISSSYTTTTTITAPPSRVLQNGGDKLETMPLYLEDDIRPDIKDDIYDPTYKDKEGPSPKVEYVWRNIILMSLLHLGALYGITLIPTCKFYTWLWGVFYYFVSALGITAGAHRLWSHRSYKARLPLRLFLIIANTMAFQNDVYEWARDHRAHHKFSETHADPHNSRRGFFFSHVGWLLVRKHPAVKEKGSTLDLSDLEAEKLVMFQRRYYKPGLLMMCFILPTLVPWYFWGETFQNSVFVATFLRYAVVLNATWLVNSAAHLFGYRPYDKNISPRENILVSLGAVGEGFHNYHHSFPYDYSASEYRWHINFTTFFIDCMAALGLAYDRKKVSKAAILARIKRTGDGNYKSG
Method in brief: (§1)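 ole1Δ yeast (W303 pdr1Δ pdr3Δ background) carrying plasmid-borne Ole1, SCD1 or SCD5, grown in uracil-free media; cultures pre-grown in raffinose, seeded at 2× density 0.02 in galactose media with compound. Growth read as OD600 after 24 h at 30° C. for Ole1, 40 h for SCD1/SCD5.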

SCD5 = molecular target: T2, SCD5 (Homo sapiens, UniProt Q86SK9); assay: Growth inhibition of humanized yeast strain expressing SCD5 as sole desaturase; assay type: cell-based; conditions: humanized yeast strain expressing SCD5
T2 construct: host or cells: S. cerevisiae ole1Δ strain (W303 pdr1Δ pdr3Δ background), plasmid pRS316 with TDH3 promoter and CYC1 terminator
T2 sequence (Q86SK9 1-330): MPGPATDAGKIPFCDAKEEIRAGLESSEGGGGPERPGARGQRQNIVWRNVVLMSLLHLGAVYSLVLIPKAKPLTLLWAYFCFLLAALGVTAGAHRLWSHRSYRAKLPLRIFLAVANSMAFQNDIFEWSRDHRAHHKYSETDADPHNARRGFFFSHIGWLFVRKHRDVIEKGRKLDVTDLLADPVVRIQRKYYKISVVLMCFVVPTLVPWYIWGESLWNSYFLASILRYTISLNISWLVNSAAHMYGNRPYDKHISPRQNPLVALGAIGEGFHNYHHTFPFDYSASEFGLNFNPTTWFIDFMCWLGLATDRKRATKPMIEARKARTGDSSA
Method in brief: as §1

[1] = tested on: yeast strains expressing the human α-synuclein; assay: Yeast α-synuclein toxicity rescue assay (OD600 growth); conditions: 40 h; for EC50: read-out: α-Syn EC50; for Emax: read-out: α-Syn Emax
Ole1 = molecular target: T3, Ole1 (Saccharomyces cerevisiae, UniProt P21147); assay: Growth inhibition of yeast strain expressing Ole1 as sole desaturase; assay type: cell-based; conditions: yeast strain expressing Ole1 as sole desaturase
T3 construct: expressed in transfected cells; host or cells: S. cerevisiae ole1Δ strain (W303 pdr1Δ pdr3Δ background), plasmid pRS316 with TDH3 promoter and CYC1 terminator
T3 sequence (P21147 1-510): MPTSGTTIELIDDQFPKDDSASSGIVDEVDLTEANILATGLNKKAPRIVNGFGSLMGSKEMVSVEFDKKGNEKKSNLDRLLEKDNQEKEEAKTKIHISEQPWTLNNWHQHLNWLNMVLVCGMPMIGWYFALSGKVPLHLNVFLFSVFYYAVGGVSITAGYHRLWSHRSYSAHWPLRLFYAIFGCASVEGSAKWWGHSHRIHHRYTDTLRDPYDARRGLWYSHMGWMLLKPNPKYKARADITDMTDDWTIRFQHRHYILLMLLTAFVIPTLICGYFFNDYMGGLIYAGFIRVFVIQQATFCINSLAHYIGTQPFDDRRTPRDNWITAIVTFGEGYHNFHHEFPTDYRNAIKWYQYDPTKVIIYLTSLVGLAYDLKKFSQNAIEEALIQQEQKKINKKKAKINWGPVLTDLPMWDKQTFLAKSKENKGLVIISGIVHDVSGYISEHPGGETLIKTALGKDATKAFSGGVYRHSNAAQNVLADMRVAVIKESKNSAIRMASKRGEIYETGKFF
Method in brief: as §1

SMILES	IC50 (SCD1) [µM]	SCD1 % Max Inhibition (SCD1)	IC50 (SCD5) [µM]	SCD5 % Max Inhibition (SCD5)	EC50 [1] [µM]	Emax [1] [%]	IC50 (Ole1) [µM]	OLE1 % Max Inhibition (Ole1)
Cn1c(=O)[nH]c2ccc(-c3noc(C4CCN(C(=O)CN5Cc6ccccc6C5=O)CC4)n3)cc21 [Compound 133]	37.3	61.21%	> 45	74.75%	6.38	281	> 45	26.72%
Cn1c(=O)[nH]c2ccc(-c3noc(C4CCN(C(=O)C5CC(=O)N(c6ccccc6)C5)CC4)n3)cc21 (stereo not shown) [Compound 134]	> 45	107.77%	> 45	98.55%	14	357	> 45	93.94%
Cc1noc2cc(-c3noc(C4CCN(C(=O)CNC(=O)c5ccccc5)CC4)n3)ccc12 [Compound 135]	> 45	92.42%	> 45	91.64%	0.593	144	> 45	99.53%
Cc1noc2cc(-c3noc(C4CCN(C(=O)C5CC(=O)N(c6ccccc6)C5)CC4)n3)ccc12 (stereo not shown) [Compound 136]	> 45	34.33%	> 45	17.07%	4.08	67	> 45	73.60%
Cc1nn(C)c2cc(-c3noc(C4CCN(C(=O)CNC(=O)c5ccccc5)CC4)n3)cnc12 [Compound 137]	> 45	90.19%	22.3	50.61%	1.05	376	> 45	96.83%
Cc1nn(C)c2cc(-c3noc(C4CCN(C(=O)C5CC(=O)N(c6ccccc6)C5)CC4)n3)cnc12 (stereo not shown) [Compound 138]	37.3	54.49%	> 45	4.57%	1.28	353	> 45	3.94%
Cc1nn(C)c2cc(-c3noc(C4CCN(C(=O)C5CC(=O)N(c6ccc(C#N)cc6)C5)CC4)n3)ccc12 (stereo not shown) [Compound 139]	> 45	87.50%	> 45	75.11%	0.021	437	> 45	25.30%
CCOc1ccc(-c2noc(C3CCN(C(=O)C(C)N4Cc5ccccc5C4=O)CC3)n2)cc1OC (stereo not shown) [Compound 140]	> 45	77.37% and 75.00%		3.46% and 10.16%	0.049	322	> 45	3.96% and 4.98%
Cc1nn(C)c2cc(-c3noc(C4CCN(C(=O)C(C)N5Cc6ccccc6C5=O)CC4)n3)ccc12 (stereo not shown) [Compound 141]	> 45	86.53%	> 45	78.91%	0.019	259	> 45	1.77%
CCOc1ccc(-c2noc(C3CCN(C(=O)CN4Cc5ccccc5C4=O)CC3)n2)nc1OC [Compound 142]	> 45	80.83%	> 45	26.00%	7.64	319	> 45	1.11%
COc1ccc(-c2noc(C3CCN(C(=O)CNC(=O)N4CCCCC4)CC3)n2)cc1OC [Compound 143]	> 45	79.38%	> 45	96.06%	16.9	73	> 45	95.01%
COc1ccc(-c2noc(C3CCN(C(=O)CNC(=O)c4ccccc4OC)CC3)n2)cc1OC [Compound 144]	> 45	79.00%	> 45	84.27%	0.521	537	> 45	100.96%
COc1ccc(-c2noc(C3CCN(C(=O)CNC(=O)c4ccccn4)CC3)n2)cc1OC [Compound 145]	> 45	78.31%	> 45	86.51%	0.1	432	15.8	51.17%
Cc1nn(C)c2nc(-c3noc(C4CCN(C(=O)CN5Cc6ccccc6C5=O)CC4)n3)ccc12 [Compound 146]	37.8	60.81%	> 45	25.62%	1.94	516	> 45	3.28%
CCOc1cnc(-c2noc(C3CCN(C(=O)CN4Cc5ccccc5C4=O)CC3)n2)cc1OC [Compound 147]	> 45	74.14%	> 45	86.70%	17.9	453	> 45	9.34%
CCOc1ccc(-c2noc(C3CCN(C(=O)[C@H]4CN(c5ccccc5)C(=O)O4)CC3)n2)cc1OC [Compound 148]	> 45	79.55%	> 45	86.53%	13.7	258	> 45	99.90%
Cc1nn(C)c2cc(-c3noc(C4CCN(C(=O)[C@@H]5CN(c6ccccc6)C(=O)O5)CC4)n3)ccc12 [Compound 149]	> 45	69.75%	> 45	38.72%	0.06	458	> 45	90.68%
COc1ccnc(C(=O)NCC(=O)N2CCC(c3nc(-c4ccc5c(C)nn(C)c5c4)no3)CC2)c1 [Compound 150]	> 45	74.48%	> 45	86.15%	0.099	473	> 45	5.16%
COc1ccc(C(=O)NCC(=O)N2CCC(c3nc(-c4ccc5c(C)nn(C)c5c4)no3)CC2)nc1 [Compound 151]	> 45	75.63%	> 45	20.68%	0.045	405	> 45	2.67%
COc1ccccc1C(=O)NCC(=O)N1CCC(c2nc(-c3ccc4c(C)nn(C)c4c3)no2)CC1 [Compound 152]	> 45	83.39%	> 45	60.91%	0.134	474	> 45	2.37%
Cc1nn(C)c2cc(-c3noc(C4CCN(C(=O)CNC(=O)c5ccccn5)CC4)n3)ccc12 [Compound 153]	> 45	75.76%	> 45	87.51%	0.02	271	> 45	2.75%
COc1cccc(C(=O)NCC(=O)N2CCC(c3nc(-c4ccc5c(C)nn(C)c5c4)no3)CC2)n1 [Compound 154]	> 45	68.90%	> 45	3.25%	0.057	410	> 45	1.20%
